pIC50: −log10 of the molar value.
Tested on: 874868-142-R-J2-PDC complex spheroids, growth % test/control
Assay: Anticancer human tumor 874868-142-R-J2-PDC patient-derived head and neck squamous carcinoma cell line growth inhibition [CLK]
Conditions: for pIC50: curve of first compound; for viability, T/C: stronger effect = lower value
How it was run: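 Patient-derived tumor cells grown as complex spheroids with HUVEC endothelial cells and mesenchymal stem cells, treated with drug combinations. Concentrations descend in half-log steps from near clinical Cmax, or from 10 microM if Cmax unknown.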

[1] = second compound 0.0316 µM, first compound 0.0316 µM
[2] = second compound 0.0316 µM, first compound 0.1 µM
[3] = second compound 0.0316 µM, first compound 0.316 µM
[4] = second compound 0.0316 µM, first compound 1 µM
[5] = second compound 0.0316 µM, first compound 3.16 µM
[6] = second compound 0.0316 µM, first compound 10 µM
[7] = second compound 0.1 µM, first compound 0.0316 µM
[8] = second compound 0.1 µM, first compound 0.1 µM
[9] = second compound 0.1 µM, first compound 0.316 µM
[10] = second compound 0.1 µM, first compound 1 µM
[11] = second compound 0.1 µM, first compound 3.16 µM
[12] = second compound 0.1 µM, first compound 10 µM
[13] = second compound 0.316 µM, first compound 0.0316 µM
[14] = second compound 0.316 µM, first compound 0.1 µM
[15] = second compound 0.316 µM, first compound 0.316 µM
[16] = second compound 0.316 µM, first compound 1 µM
[17] = second compound 0.316 µM, first compound 3.16 µM
[18] = second compound 0.316 µM, first compound 10 µM
[19] = second compound 1 µM, first compound 0.0316 µM
[20] = second compound 1 µM, first compound 0.1 µM
[21] = second compound 1 µM, first compound 0.316 µM
[22] = second compound 1 µM, first compound 1 µM
[23] = second compound 1 µM, first compound 3.16 µM
[24] = second compound 1 µM, first compound 10 µM
[25] = second compound 3.16 µM, first compound 0.0316 µM
[26] = second compound 3.16 µM, first compound 0.1 µM
[27] = second compound 3.16 µM, first compound 0.316 µM
[28] = second compound 3.16 µM, first compound 1 µM
[29] = second compound 3.16 µM, first compound 3.16 µM
[30] = second compound 3.16 µM, first compound 10 µM
[31] = second compound 10 µM, first compound 0.0316 µM
[32] = second compound 10 µM, first compound 0.1 µM
[33] = second compound 10 µM, first compound 0.316 µM
[34] = second compound 10 µM, first compound 1 µM
[35] = second compound 10 µM, first compound 3.16 µM
[36] = second compound 10 µM, first compound 10 µM
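Note: spheroids exposed to the compounds for 7 days.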
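Throughout, for viability, T/C: 100% = DMSO vehicle control viability.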

## CC1(C)CCC(CN2CCN(c3ccc(C(=O)NS(=O)(=O)c4ccc(NCC5CCOCC5)c([N+](=O)[O-])c4)c(Oc4cnc5[nH]ccc5c4)c3)CC2)=C(c2ccc(Cl)cc2)C1 + CN1CCN(c2cc(C(=O)Nc3cc4cc(-c5cnn(C)c5)ccc4cn3)ccn2)CC1
Second compound 0.0316 µM
  pIC50: < 5.00
Second compound 0.1 µM
  pIC50: < 5.00
Second compound 0.316 µM
  pIC50: > 7.50
Second compound 1 µM
  pIC50: > 7.50
Second compound 3.16 µM
  pIC50: > 7.50
Second compound 10 µM
  pIC50: > 7.50
[1]
  viability, T/C: 72.6%
[2]
  viability, T/C: 90.4%
[3]
  viability, T/C: 69.6%
[4]
  viability, T/C: 96.1%
[5]
  viability, T/C: 76.6%
[6]
  viability, T/C: 70%
[7]
  viability, T/C: 77.6%
[8]
  viability, T/C: 69.9%
[9]
  viability, T/C: 67.1%
[10]
  viability, T/C: 75.9%
[11]
  viability, T/C: 47.2%
[12]
  viability, T/C: 58.9%
[13]
  viability, T/C: 20.8%
[14]
  viability, T/C: 17.6%
[15]
  viability, T/C: 17%
[16]
  viability, T/C: 18.8%
[17]
  viability, T/C: 12.8%
[18]
  viability, T/C: 11.3%
[19]
  viability, T/C: 0.46%
[20]
  viability, T/C: 4.39%
[21]
  viability, T/C: 0.38%
[22]
  viability, T/C: 0.29%
[23]
  viability, T/C: 0.25%
[24]
  viability, T/C: 0.25%
[25]
  viability, T/C: 0.23%
[26]
  viability, T/C: 0.22%
[27]
  viability, T/C: 0.22%
[28]
  viability, T/C: 0.13%
[29]
  viability, T/C: 0.22%
[30]
  viability, T/C: 0.19%
[31]
  viability, T/C: 0.13%
[32]
  viability, T/C: 3.51%
[33]
  viability, T/C: 1.25%
[34]
  viability, T/C: 0.25%
[35]
  viability, T/C: 0.17%
[36]
  viability, T/C: 1.58%

## NC(=O)C(=Cn1cnc(-c2cc(C(F)(F)F)cc(C(F)(F)F)c2)n1)c1cncnc1 + CN1CCN(c2cc(C(=O)Nc3cc4cc(-c5cnn(C)c5)ccc4cn3)ccn2)CC1
Second compound 0.0316 µM
  pIC50: 7.29
Second compound 0.1 µM
  pIC50: > 8.02
Second compound 0.316 µM
  pIC50: > 8.02
Second compound 1 µM
  pIC50: > 8.02
Second compound 3.16 µM
  pIC50: > 8.02
Second compound 10 µM
  pIC50: > 8.02
Second compound 0.0316 µM, first compound 0.00949 µM
  viability, T/C: 69.8%
Second compound 0.0316 µM, first compound 0.03 µM
  viability, T/C: 62.5%
Second compound 0.0316 µM, first compound 0.0949 µM
  viability, T/C: 35.4%
Second compound 0.0316 µM, first compound 0.3 µM
  viability, T/C: 20.1%
Second compound 0.0316 µM, first compound 0.949 µM
  viability, T/C: 1.73%
Second compound 0.0316 µM, first compound 3 µM
  viability, T/C: 2.54%
Second compound 0.1 µM, first compound 0.00949 µM
  viability, T/C: 50%
Second compound 0.1 µM, first compound 0.03 µM
  viability, T/C: 44.8%
Second compound 0.1 µM, first compound 0.0949 µM
  viability, T/C: 25.2%
Second compound 0.1 µM, first compound 0.3 µM
  viability, T/C: 3.61%
Second compound 0.1 µM, first compound 0.949 µM
  viability, T/C: 0.81%
Second compound 0.1 µM, first compound 3 µM
  viability, T/C: 0.34%
Second compound 0.316 µM, first compound 0.00949 µM
  viability, T/C: 14%
Second compound 0.316 µM, first compound 0.03 µM
  viability, T/C: 5.04%
Second compound 0.316 µM, first compound 0.0949 µM
  viability, T/C: 0.53%
Second compound 0.316 µM, first compound 0.3 µM
  viability, T/C: 0.23%
Second compound 0.316 µM, first compound 0.949 µM
  viability, T/C: 0.23%
Second compound 0.316 µM, first compound 3 µM
  viability, T/C: 0.1%
Second compound 1 µM, first compound 0.00949 µM
  viability, T/C: 0.37%
Second compound 1 µM, first compound 0.03 µM
  viability, T/C: 0.25%
Second compound 1 µM, first compound 0.0949 µM
  viability, T/C: 0.32%
Second compound 1 µM, first compound 0.3 µM
  viability, T/C: 0.28%
Second compound 1 µM, first compound 0.949 µM
  viability, T/C: 0.22%
Second compound 1 µM, first compound 3 µM
  viability, T/C: 1.66%
Second compound 3.16 µM, first compound 0.00949 µM
  viability, T/C: 0.39%
Second compound 3.16 µM, first compound 0.03 µM
  viability, T/C: 0.31%
Second compound 3.16 µM, first compound 0.0949 µM
  viability, T/C: 0.46%
Second compound 3.16 µM, first compound 0.3 µM
  viability, T/C: 0.38%
Second compound 3.16 µM, first compound 0.949 µM
  viability, T/C: 0.19%
Second compound 3.16 µM, first compound 3 µM
  viability, T/C: 0.14%
Second compound 10 µM, first compound 0.00949 µM
  viability, T/C: 0.14%
Second compound 10 µM, first compound 0.03 µM
  viability, T/C: 0.14%
Second compound 10 µM, first compound 0.0949 µM
  viability, T/C: 3.64%
Second compound 10 µM, first compound 0.3 µM
  viability, T/C: 0.17%
Second compound 10 µM, first compound 0.949 µM
  viability, T/C: 0.24%
Second compound 10 µM, first compound 3 µM
  viability, T/C: 0.2%

## Nc1ccccc1NC(=O)c1ccc(CNC(=O)OCc2cccnc2)cc1 + CN1CCN(c2cc(C(=O)Nc3cc4cc(-c5cnn(C)c5)ccc4cn3)ccn2)CC1
Second compound 0.0316 µM
  pIC50: 5.13
Second compound 0.1 µM
  pIC50: 5.35
Second compound 0.316 µM
  pIC50: > 7.50
Second compound 1 µM
  pIC50: > 7.50
Second compound 3.16 µM
  pIC50: > 7.50
Second compound 10 µM
  pIC50: > 7.50
[1]
  viability, T/C: 86.7%
[2]
  viability, T/C: 79.6%
[3]
  viability, T/C: 88.7%
[4]
  viability, T/C: 116%
[5]
  viability, T/C: 94.5%
[6]
  viability, T/C: 35.2%
[7]
  viability, T/C: 73.2%
[8]
  viability, T/C: 67.8%
[9]
  viability, T/C: 72.5%
[10]
  viability, T/C: 102%
[11]
  viability, T/C: 62.8%
[12]
  viability, T/C: 21.2%
[13]
  viability, T/C: 13.4%
[14]
  viability, T/C: 15.8%
[15]
  viability, T/C: 15.8%
[16]
  viability, T/C: 17.9%
[17]
  viability, T/C: 7.51%
[18]
  viability, T/C: 0.19%
[19]
  viability, T/C: 0.32%
[20]
  viability, T/C: 6.56%
[21]
  viability, T/C: 0.28%
[22]
  viability, T/C: 0.17%
[23]
  viability, T/C: 0.12%
[24]
  viability, T/C: 2.14%
[25]
  viability, T/C: 0.23%
[26]
  viability, T/C: 0.27%
[27]
  viability, T/C: 0.18%
[28]
  viability, T/C: 0.2%
[29]
  viability, T/C: 0.27%
[30]
  viability, T/C: 0.26%
[31]
  viability, T/C: 0.1%
[32]
  viability, T/C: 0.32%
[33]
  viability, T/C: 0.16%
[34]
  viability, T/C: 0.14%
[35]
  viability, T/C: 0.18%
[36]
  viability, T/C: 2.46%
